Among the data in paper PMC6795141 (RNA, 2019) are Kd and Ki values, retold here.

Data set [1] has as its target T1, PaTrmD (tRNA (m^1G37) methyltransferase TrmD, PA14_15990) (Pseudomonas aeruginosa, UniProt Q02RL6).
T1 sequence (Q02RL6 5-250): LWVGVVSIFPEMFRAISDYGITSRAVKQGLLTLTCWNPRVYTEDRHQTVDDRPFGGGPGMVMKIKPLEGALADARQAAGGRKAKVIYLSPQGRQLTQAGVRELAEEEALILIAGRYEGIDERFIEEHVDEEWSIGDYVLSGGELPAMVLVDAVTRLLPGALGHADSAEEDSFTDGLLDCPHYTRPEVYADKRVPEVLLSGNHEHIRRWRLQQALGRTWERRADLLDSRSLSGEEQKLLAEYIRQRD
Nature of the data set: ITC with refolded PaTrmD. In kind it is binding.

For data set [2], the target named is T1, PaTrmD (tRNA (m^1G37) methyltransferase TrmD, PA14_15990). Nature of the data set: crystal structures. In kind it is biochemical.
A further data set concerns the target T2, PaTrmD (refolded) (Pseudomonas aeruginosa PA14, UniProt Q02RL6 5-250).
T2 sequence: T1 sequence (Q02RL6 5-250)
Nature of the data set: ITC. On the technique in general: ITC needs no label: the signal is the heat of the interaction.

For `C[S+](CC[C@H](N)C(=O)[O-])C[C@H]1O[C@@H](n2cnc3c(N)ncnc32)[C@H](O)[C@@H]1O` (stereo partly drawn) [SAM, S-adenosyl-L-methionine], the Kd in data set [1] was determined as 14.4 ± 3.1 µM.

Consider `Nc1ncnc2c1ncn2[C@@H]1O[C@H](C[C@@H](N)CC[C@H](N)C(=O)O)[C@@H](O)[C@H]1O` [SFG, sinefungin], for which the Ki in data set [2] was found to be 0.41 ± 0.07 µM.

B1: tRNALeu(GAG) (structured_RNA)
RNA: GGGGCCGAGGUGGUGGAAUUGGUAGACACGCUACCUUGAGGUGGUAGUGGCCAUAGGCUGUAGGGGUUCGAGUCCCCUCCUCGGUACCA
modifications: none (unmodified transcript)
As for B1, the Kd with PaTrmD (refolded) worked out at 13.6 ± 3 µM.

As usually defined, the Kd is a measure of binding affinity in units of concentration. Low values mean a tighter complex, high ones a looser complex. Usually Ki stands for a dissociation constant, usually derived from enzyme kinetics or from competition with a known ligand.
